Source: paper PMC7858579, “Biochemical and structural characterization of a recombinant fibrinogen-related lectin from Penaeus monodon” (Scientific Reports, 2021)

Columns and labels:
[1] = target: T1, His6 PmFREP (PmFREP; PL5-1) (Penaeus monodon, UniProt A0A068LKH5, G184D); assay: inhibition of human red blood cell (type A) agglutination; type: cell-based; conditions: 0.5 uM His6 PmFREP, 3% (v/v) red blood cells; multivalent avidity assay
T1 construct: full length without native signal peptide; XEEL signal peptide (cleaved), N-terminal His6 tag kept; native part starts GTTERTDTA (from primer); Trichoplusia ni cells; disulfide-linked dimer of pentamers

[2] = target: T1, His6 PmFREP (PmFREP; PL5-1); assay: binding to GlcNAc affinity resin and competitive elution, western blot; conditions: 100 mM monosaccharide, 20 mM HEPES pH 7.5, 150 mM NaCl, 10 mM CaCl2

T1 sequence (A0A068LKH5 entry or part of it G184D): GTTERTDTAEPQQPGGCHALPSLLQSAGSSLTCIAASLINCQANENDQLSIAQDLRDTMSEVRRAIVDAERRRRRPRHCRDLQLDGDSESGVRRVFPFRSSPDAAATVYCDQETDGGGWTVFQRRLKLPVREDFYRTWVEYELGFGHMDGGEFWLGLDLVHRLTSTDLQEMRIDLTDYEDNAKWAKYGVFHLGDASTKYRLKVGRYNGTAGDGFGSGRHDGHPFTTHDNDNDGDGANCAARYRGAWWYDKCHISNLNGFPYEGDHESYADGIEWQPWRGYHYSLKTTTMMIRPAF

concentration inhibiting agglutination [1]	SMILES	binding to GlcNAc affinity resin and competitive elution, western blot [2]
~ 10 mM	CC(=O)N[C@H]1C(O)O[C@H](CO)[C@H](O)[C@@H]1O (some centres unmarked) [GalNAc, N-acetylgalactosamine]	
~ 10 mM	CC(=O)N[C@H]1C(O)O[C@H](CO)[C@@H](O)[C@@H]1O (some centres unmarked) [GlcNAc]	His6 PmFREP can bind GlcNAc as expected for fibrinogen-like lectin
1 mM	CC(=O)N[C@@H]1C(O)O[C@H](CO)[C@@H](O)[C@@H]1O (some centres unmarked) [ManNAc, N-acetylmannosamine]	
5 mM	CC(=O)N[C@H]1[C@H]([C@H](O)[C@H](O)CO)OC(O)(C(=O)O)C[C@@H]1O (some centres unmarked) [Neu5Ac, N-acetylneuraminic acid]	
